In experiment [1] the test system is A/PR/8/34 influenza virus. Kind of experiment: microbe, parasite or virus in culture. It is filed as cell-based.
Experiment [2] concerns influenza A virus (A/PR/8/34). As to the kind of experiment: microbe, parasite or virus in culture. It is filed as cell-based.
The mark [3] stands for this setting: Influenza A virus, PR/8, MDCK, mean all, A/PR/8/34 influenza virus in MDCK cells, bDNA assay, read-out: EC50.
Where [4] appears, read: Influenza A virus, PR/8, MDCK, mean all, A/PR/8/34 infected MDCK cells, CPE assay, read-out: IC50.
Setting [5] is: Influenza A virus, PR/8, MDCK, MDCK cells infected with A/PR/8/34, replication of influenza virus (viral RNA, bDNA), class symbols, read-out: EC50 (mean all).
Setting [6] is: Influenza A virus, PR/8, MDCK, MDCK cells infected with A/PR/8/34, survival of infected cells, class symbols, read-out: IC50 (mean all).

Read-outs that look alike come from different tables or passages of the source. A value given as a limit tells only on which side of the number the result lay.

Take `CS(=O)(=O)NC1CCCC(Nc2nc(-c3c[nH]c4ncc(Cl)cc34)ncc2F)C1` (stereo not shown) [Compound 454, N-[3-[[2-(5-chloro-1H-pyrrolo[2,3-b]pyridin-3-yl)-5-fluoro-pyrimidin-4-yl]amino]cyclohexyl]methanesulfonamide]: the EC50 in experiment [1] (setting [3]) is less than 5 µM. Also, the IC50 in experiment [2] (setting [4]) is less than 5 µM.

Take `CCN1CCC[C@H](Nc2nc(-c3c[nH]c4ncc(Cl)cc34)ncc2F)C1=O` [Compound 460]: the EC50 in experiment [1] (setting [3]) was less than 5 µM. Moreover, the IC50 in experiment [2] (setting [4]) was less than 5 µM.

`CN1CCCC[C@H](Nc2nc(-c3c[nH]c4ncc(Cl)cc34)ncc2F)C1=O` [Compound 461]: in experiment [1] (setting [3]), the EC50 was less than 5 µM. Besides, the IC50 in experiment [2] (setting [4]) is less than 5 µM.

Regarding `CCN1CCCC[C@H](Nc2nc(-c3c[nH]c4ncc(Cl)cc34)ncc2F)C1=O` [Compound 462], the EC50 in experiment [1] (setting [3]) is less than 5 µM. The IC50 in experiment [2] (setting [4]) lay in the range of 5 to 20 µM.

With `CCCS(=O)(=O)N1CCCC(Nc2ccnc(-c3c[nH]c4ncc(Cl)cc34)n2)C1` (stereo not shown) [Compound 464], the EC50 in experiment [1] (mean all, A/PR/8/34 influenza virus in MDCK cells, bDNA assay, read-out: EC50) was less than 5 µM. In addition, the IC50 in experiment [2] (mean all, A/PR/8/34 infected MDCK cells, CPE assay, read-out: IC50) is less than 5 µM.

Turning to `CC(=O)N1CCCC(CNc2ccnc(-c3c[nH]c4ncc(Cl)cc34)n2)C1` (stereo not shown) [Compound 490], the EC50 in experiment [1] (MDCK cells infected with A/PR/8/34, replication of influenza virus (viral RNA, bDNA), class symbols, read-out: EC50 (mean all)) is less than 5 µM. In addition, in experiment [2] (MDCK cells infected with A/PR/8/34, survival of infected cells, class symbols, read-out: IC50 (mean all)), the half-inhibitory concentration (IC50) is less than 5 µM.

Turning to `COCCC(=O)N1CCC[C@H](CNc2ccnc(-c3c[nH]c4ncc(Cl)cc34)n2)C1` [Compound 493, (R)-1-(3-((2-(5-chloro-1H-pyrrolo[2,3-b]pyridin-3-yl)pyrimidin-4-ylamino)methyl)piperidin-1-yl)-3-methoxypropan-1-one], the EC50 in experiment [1] (setting [5]) is less than 5 µM. Further, the IC50 in experiment [2] (setting [6]) is less than 5 µM.

For `CC(=O)N1CCCC(Nc2nc(-c3c[nH]c4ncc(Cl)cc34)ncc2F)CC1` (stereo not shown) [Compound 497, 1-(4-(2-(5-chloro-1H-pyrrolo[2,3-b]pyridin-3-yl)-5-fluoropyrimidin-4-ylamino)azepan-1-yl)ethanone], the EC50 in experiment [1] (setting [5]) is less than 5 µM. For the same compound, in experiment [2] (setting [6]), the IC50 is less than 5 µM.

On to `CN(C)C(=O)N1CCCC(Nc2nc(-c3c[nH]c4ncc(Cl)cc34)ncc2F)CC1` (stereo not shown) [Compound 499, 4-(2-(5-chloro-1H-pyrrolo[2,3-b]pyridin-3-yl)-5-fluoropyrimidin-4-ylamino)-N,N-dimethylazepane-1-carboxamide], for which the EC50 in experiment [1] (setting [5]) is less than 5 µM. In addition, in experiment [2] (setting [6]), the IC50 was less than 5 µM.

Regarding `O=C1NCCCC[C@@H]1Nc1ccnc(-c2c[nH]c3ncc(Cl)cc23)n1` [Compound 500], in experiment [1] (setting [5]), the EC50 is less than 5 µM. The IC50 in experiment [2] (setting [6]) is less than 5 µM.

In the case of `O=C1NCCCC[C@@H]1Nc1nc(-c2c[nH]c3ncc(C(F)(F)F)cc23)ncc1F` [Compound 502, (S)-3-(5-fluoro-2-(5-(trifluoromethyl)-1H-pyrrolo[2,3-b]pyridin-3-yl)pyrimidin-4-ylamino)azepan-2-one], the EC50 in experiment [1] (setting [5]) was less than 5 µM. Besides, the IC50 in experiment [2] (setting [6]) is less than 5 µM.

Take `CC1(C)CCC[C@H](Nc2nc(-c3c[nH]c4ncc(Cl)cc34)ncc2F)C(=O)N1` [Compound 504]: in experiment [1] (setting [5]), the EC50 is less than 5 µM. The IC50 in experiment [2] (setting [6]) was in the range of 5 to 20 µM.

For `CNC(=O)N1CCCC(Nc2nc(-c3c[nH]c4ncc(Cl)cc34)ncc2F)CC1` (stereo not shown) [Compound 506, 4-(2-(5-chloro-1H-pyrrolo[2,3-b]pyridin-3-yl)-5-fluoropyrimidin-4-ylamino)-N-methylazepane-1-carboxamide], the EC50 in experiment [1] (setting [5]) was less than 5 µM. Besides, the IC50 in experiment [2] (setting [6]) was less than 5 µM.

With `NC(=O)N1CCC[C@H](Nc2nc(-c3c[nH]c4ncc(Cl)cc34)ncc2F)C1` [Compound 507], the EC50 in experiment [1] (setting [5]) was less than 5 µM. In experiment [2] (setting [6]), the IC50 was less than 5 µM.

As for `NC(=O)N1CCCC(Nc2nc(-c3c[nH]c4ncc(Cl)cc34)ncc2F)CC1` (stereo not shown) [Compound 509, 4-(2-(5-chloro-1H-pyrrolo[2,3-b]pyridin-3-yl)-5-fluoropyrimidin-4-ylamino)azepane-1-carboxamide], in experiment [1] (setting [5]), the half-maximal effective concentration (EC50) was less than 5 µM. Moreover, the IC50 in experiment [2] (setting [6]) was less than 5 µM.

In the case of `NC(=O)N1CC(Nc2nc(-c3c[nH]c4ncc(Cl)cc34)ncc2F)C1` [Compound 512], the EC50 in experiment [1] (setting [5]) fell in the range of 5 to 10 µM. The IC50 in experiment [2] (setting [6]) is greater than 20 µM.

`O=C1NCCOCC1Nc1nc(-c2c[nH]c3ncc(Cl)cc23)ncc1F` (stereo not shown) [Compound 513, 6-(2-(5-chloro-1H-pyrrolo[2,3-b]pyridin-3-yl)-5-fluoropyrimidin-4-ylamino)-1,4-oxazepan-5-one]: in experiment [1] (setting [5]), the EC50 is less than 5 µM. In experiment [2] (setting [6]), the IC50 was 5 to 20 µM.

Regarding `OC1CCCC(Nc2nc(-c3c[nH]c4ncc(Cl)cc34)ncc2F)C1` [Compound 524, (3S)-3-((2-(5-chloro-1H-pyrrolo[2,3-b]pyridin-3-yl)-5-fluoropyrimidin-4-ylamino)cyclohexanol], the EC50 in experiment [1] (setting [5]) is less than 5 µM. Also, the IC50 in experiment [2] (setting [6]) is less than 5 µM.

In the case of `OCC(O)CN1CCCC(Nc2nc(-c3c[nH]c4ncc(Cl)cc34)ncc2F)C1` [Compound 525, 3-((S)-3-((2-(5-chloro-1H-pyrrolo[2,3-b]pyridin-3-yl)-5-fluoropyrimidin-4-ylamino)piperidin-1-yl)propane-1,2-diol], the EC50 in experiment [1] (setting [5]) was less than 5 µM. Also, the IC50 in experiment [2] (setting [6]) is less than 5 µM.

For the compound `COC(=O)N1CCOCC1CNc1nc(-c2c[nH]c3ncc(Cl)cc23)ncc1F` (stereo not shown) [Compound 526, Methyl 3-((2-(5-chloro-1H-pyrrolo[2,3-b]pyridin-3-yl)-5-fluoropyrimidin-4-ylamino)methyl)morpholine-4-carboxylate], the EC50 in experiment [1] (setting [5]) was less than 5 µM. Besides, in experiment [2] (setting [6]), the half-inhibitory concentration (IC50) is 5 to 20 µM.

Consider `CCOC(=O)N1CCOCC1CNc1nc(-c2c[nH]c3ncc(Cl)cc23)ncc1F` (stereo not shown) [Compound 527, Ethyl 3-((2-(5-chloro-1H-pyrrolo[2,3-b]pyridin-3-yl)-5-fluoropyrimidin-4-ylamino)methyl)morpholine-4-carboxylate], for which the EC50 in experiment [1] (setting [5]) was greater than 10 µM. In addition, the IC50 in experiment [2] (setting [6]) is greater than 20 µM.

As to `C=CCOC(=O)N1CCOCC1CNc1nc(-c2c[nH]c3ncc(Cl)cc23)ncc1F` (stereo not shown) [Compound 528, Allyl 3-((2-(5-chloro-1H-pyrrolo[2,3-b]pyridin-3-yl)-5-fluoropyrimidin-4-ylamino)methyl)morpholine-4-carboxylate], the EC50 in experiment [1] (setting [5]) was greater than 10 µM. The IC50 in experiment [2] (setting [6]) lay within 5 to 20 µM.

On to `CC(C)C(=O)N1CCOCC1CNc1nc(-c2c[nH]c3ncc(Cl)cc23)ncc1F` (stereo not shown) [Compound 529, 1-(3-((2-(5-chloro-1H-pyrrolo[2,3-b]pyridin-3-yl)-5-fluoropyrimidin-4-ylamino)methyl)morpholino)-2-methylpropan-1-one], for which, in experiment [1] (setting [5]), the EC50 is greater than 10 µM. In experiment [2] (setting [6]), the IC50 lay in the range of 5 to 20 µM.

Consider `CC(C)(C)C(=O)N1CCOCC1CNc1nc(-c2c[nH]c3ncc(Cl)cc23)ncc1F` (stereo not shown) [Compound 530, 1-(3-((2-(5-chloro-1H-pyrrolo[2,3-b]pyridin-3-yl)-5-fluoropyrimidin-4-ylamino)methyl)morpholino)-2,2-dimethylpropan-1-one], for which, in experiment [1] (setting [5]), the EC50 fell in the range of 5 to 10 µM. Moreover, in experiment [2] (setting [6]), the IC50 is greater than 20 µM.

Turning to `O=C(C1CCC1)N1CCOCC1CNc1nc(-c2c[nH]c3ncc(Cl)cc23)ncc1F` (stereo not shown) [Compound 531, (3-((2-(5-chloro-1H-pyrrolo[2,3-b]pyridin-3-yl)-5-fluoropyrimidin-4-ylamino)methyl)morpholino)(cyclobutyl)methanone], the EC50 in experiment [1] (setting [5]) was less than 5 µM. In experiment [2] (setting [6]), the IC50 fell in the range of 5 to 20 µM.

`CS(=O)(=O)N1CCOCC1CNc1nc(-c2c[nH]c3ncc(Cl)cc23)ncc1F` (stereo not shown) [Compound 532, 2-(5-chloro-1H-pyrrolo[2,3-b]pyridin-3-yl)-5-fluoro-N-((4-(methylsulfonyl)morpholin-3-yl)methyl)pyrimidin-4-amine]: the EC50 in experiment [1] (setting [5]) was less than 5 µM. Further, the IC50 in experiment [2] (setting [6]) fell in the range of 5 to 20 µM.

Turning to `O=S(=O)(C1CC1)N1CCOCC1CNc1nc(-c2c[nH]c3ncc(Cl)cc23)ncc1F` (stereo not shown) [Compound 533, 2-(5-chloro-1H-pyrrolo[2,3-b]pyridin-3-yl)-N-((4-(cyclopropylsulfonyl)morpholin-3-yl)methyl)-5-fluoropyrimidin-4-amine], the EC50 in experiment [1] (setting [5]) is less than 5 µM. For the same compound, the IC50 in experiment [2] (setting [6]) was 5 to 20 µM.

Regarding `NC(=O)N1CCOCC1CNc1nc(-c2c[nH]c3ncc(Cl)cc23)ncc1F` (stereo not shown) [Compound 534, 3-((2-(5-chloro-1H-pyrrolo[2,3-b]pyridin-3-yl)-5-fluoropyrimidin-4-ylamino)methyl)morpholine-4-carboxamide], the 50% effective concentration (EC50) in experiment [1] (setting [5]) is less than 5 µM. The IC50 in experiment [2] (setting [6]) was in the range of 5 to 20 µM.

For `CCNC(=O)N1CCOCC1CNc1nc(-c2c[nH]c3ncc(Cl)cc23)ncc1F` (stereo not shown) [Compound 535, 3-((2-(5-chloro-1H-pyrrolo[2,3-b]pyridin-3-yl)-5-fluoropyrimidin-4-ylamino)methyl)-N-ethylmorpholine-4-carboxamide], the EC50 in experiment [1] (setting [5]) is greater than 10 µM. Further, the IC50 in experiment [2] (setting [6]) was in the range of 5 to 20 µM.

With `CC(C)NC(=O)N1CCOCC1CNc1nc(-c2c[nH]c3ncc(Cl)cc23)ncc1F` (stereo not shown) [Compound 536, 3-((2-(5-chloro-1H-pyrrolo[2,3-b]pyridin-3-yl)-5-fluoropyrimidin-4-ylamino)methyl)-N-isopropylmorpholine-4-carboxamide], the EC50 in experiment [1] (setting [5]) is greater than 10 µM. The IC50 in experiment [2] (setting [6]) lay in the range of 5 to 20 µM.

With `COCC(O)CN1CCCC(Nc2nc(-c3c[nH]c4ncc(Cl)cc34)ncc2F)C1` [Compound 537, 1-((S)-3-((2-(5-chloro-1H-pyrrolo[2,3-b]pyridin-3-yl)-5-fluoropyrimidin-4-ylamino)piperidin-1-yl)-3-methoxypropan-2-ol], the EC50 in experiment [1] (setting [5]) is less than 5 µM. Moreover, the IC50 in experiment [2] (setting [6]) is less than 5 µM.

In the case of `CC[C@H](O)CN1CCCC(Nc2nc(-c3c[nH]c4ncc(Cl)cc34)ncc2F)C1` (stereo partly shown) [Compound 538], the EC50 in experiment [1] (setting [5]) is less than 5 µM. For the same compound, the IC50 in experiment [2] (setting [6]) is less than 5 µM.

The record behind these values is patent publication US8829007B2 (priority 2009, dated 2014).
